Publication PMC2737262 (Bioorganic & medicinal chemistry letters, 2009)

Assays:
[1] = tested on: wild-type HIV-1 IIIB in MT-2 human T-cells; assay: MTT colorimetric assay, survival of HIV-infected MT-2 cells; type: cell-based

CC[C@H](C)[C@@H](CC(=O)N[C@@H](CCC(=O)O)CC(=O)O)NC(=O)C[C@@H](NC(=O)C[C@H](CCCN)NC(=O)C[C@H](Cc1c[nH]c2ccccc12)NC(=O)C[C@@H](NC(=O)C[C@H](CCC(=O)O)NC(=O)C[C@H](Cc1c[nH]c2ccccc12)NC(=O)C[C@@H](NC(=O)C[C@@H](N)CCCN)C(C)C)C(C)C)C(C)C [βWWI-1] was tested, and the CC50 (MT-2 cells) was 100 ± 19.6 µM.

With CC[C@H](C)[C@@H](CC(=O)N[C@@H](CCC(=O)O)CC(=O)O)NC(=O)C[C@@H](NC(=O)C[C@H](CCCN)NC(=O)C[C@H](Cc1cccc(C(F)(F)F)c1)NC(=O)C[C@@H](NC(=O)C[C@H](CCC(=O)O)NC(=O)C[C@H](Cc1c[nH]c2ccccc12)NC(=O)C[C@@H](NC(=O)C[C@@H](N)CCCN)C(C)C)C(C)C)C(C)C [βWXI-a] the CC50 (MT-2 cells) was 150 ± 3.3 µM.

In the case of enfuvirtide, the EC50 [1] is reported as 0.0375 µM.

With CC[C@H](C)[C@@H](CC(=O)N[C@@H](CCC(=O)O)CC(=O)O)NC(=O)C[C@@H](NC(=O)C[C@H](CCCN)NC(=O)C[C@H](Cc1cccnc1)NC(=O)C[C@@H](NC(=O)C[C@H](CCC(=O)O)NC(=O)C[C@H](Cc1c[nH]c2ccccc12)NC(=O)C[C@@H](NC(=O)C[C@@H](N)CCCN)C(C)C)C(C)C)C(C)C [βWXI-b] the CC50 (MT-2 cells) was > 250 µM.
